Experimental data reported in PubChem BioAssay (NCI).
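GI50 is the concentration that inhibits growth by half. TGI is the concentration that stops growth completely.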

Legend:
Test in all cases: NCI-60 cell line screen, 384-well format
[1] = system: SK-MEL-5 melanoma
[2] = system: MALME-3M melanoma
[3] = system: RPMI-8226 leukemia
[4] = system: OVCAR-5 ovarian
[5] = system: M14 melanoma
[6] = system: HT29 colon
[7] = system: LOX IMVI melanoma
[8] = system: SK-MEL-2 melanoma
[9] = system: MOLT-4 leukemia
[10] = system: SN12C renal
[11] = system: RXF 393 renal
[12] = system: T-47D breast
[13] = system: IGROV1 ovarian
[14] = system: TK-10 renal
[15] = system: NCI-H460 NSCLC
[16] = system: SNB-19 CNS
[17] = system: CCRF-CEM leukemia
[18] = system: HOP-92 NSCLC
[19] = system: NCI-H23 lung
[20] = system: HS 578T breast
[21] = system: HCT-116 colon
[22] = system: COLO 205 colon
[23] = system: HCC-2998 colon
[24] = system: MCF7 breast
[25] = system: U251 glioblastoma
[26] = system: MDA-MB-435 melanoma
[27] = system: K-562 leukemia
[28] = system: UACC-257 melanoma
[29] = system: 786-0 renal
[30] = system: CAKI-1 renal
[31] = system: MDA-MB-468 breast
[32] = system: NCI-H522 lung
[33] = system: EKVX NSCLC
[34] = system: OVCAR-3 ovarian
[35] = system: DU-145 prostate
[36] = system: HCT-15 colon
[37] = system: UACC-62 melanoma
[38] = system: HL-60(TB) leukemia
[39] = system: ACHN renal
[40] = system: SNB-75 CNS

Question: For O=C1CCc2c(Oc3ccc4c(c3)[C@H]3[C@@H](O4)[C@@H]3c3nc4ccc(C(F)(F)F)cc4[nH]3)ccnc2N1, which GI50 [1] is on record?
Answer: 54.9 nM

Question: And the TGI [1]?
Answer: 1480 nM

Question: And the TGI [2]?
Answer: 32.2 nM

Question: And the GI50 [3]?
Answer: 166 nM

Question: What about the TGI [3] of the same compound?
Answer: 304 nM

Question: What about the GI50 [4] of the same compound?
Answer: 793 nM

Question: What about the TGI [4] of the same compound?
Answer: > 100000 nM

Question: And the GI50 [5]?
Answer: 13.4 nM

Question: What about the TGI [5] of the same compound?
Answer: 119 nM

Question: What about the GI50 [6] of the same compound?
Answer: 206 nM

Question: What about the TGI [6] of the same compound?
Answer: > 100000 nM

Question: And the GI50 [7]?
Answer: 113 nM

Question: What about the TGI [7] of the same compound?
Answer: 256 nM

Question: What about the GI50 [8] of the same compound?
Answer: 258 nM

Question: What about the TGI [8] of the same compound?
Answer: 1210 nM

Question: What about the GI50 [9] of the same compound?
Answer: 1140 nM

Question: And the TGI [9]?
Answer: 2380 nM

Question: What about the GI50 [10] of the same compound?
Answer: 2080 nM

Question: What about the TGI [10] of the same compound?
Answer: > 100000 nM

Question: And the GI50 [11]?
Answer: 188 nM

Question: And the TGI [11]?
Answer: 331 nM

Question: And the GI50 [12]?
Answer: 1690 nM

Question: And the TGI [12]?
Answer: 6940 nM

Question: And the GI50 [13]?
Answer: 789 nM

Question: And the TGI [13]?
Answer: 7130 nM

Question: What about the GI50 [14] of the same compound?
Answer: 1830 nM

Question: What about the TGI [14] of the same compound?
Answer: 8270 nM

Question: What about the GI50 [15] of the same compound?
Answer: 1670 nM

Question: What about the TGI [15] of the same compound?
Answer: > 100000 nM

Question: And the GI50 [16]?
Answer: 4790 nM

Question: And the TGI [16]?
Answer: > 100000 nM

Question: And the GI50 [17]?
Answer: 1200 nM

Question: And the TGI [17]?
Answer: 3050 nM

Question: What about the GI50 [18] of the same compound?
Answer: 1650 nM

Question: What about the TGI [18] of the same compound?
Answer: 3910 nM

Question: What about the GI50 [19] of the same compound?
Answer: 169 nM

Question: What about the TGI [19] of the same compound?
Answer: 454 nM

Question: What about the GI50 [20] of the same compound?
Answer: 1600 nM

Question: What about the TGI [20] of the same compound?
Answer: 7130 nM

Question: And the GI50 [21]?
Answer: 494 nM

Question: And the TGI [21]?
Answer: 3580 nM

Question: And the GI50 [22]?
Answer: 18 nM

Question: And the TGI [22]?
Answer: 348 nM

Question: And the GI50 [23]?
Answer: 1200 nM

Question: What about the TGI [23] of the same compound?
Answer: 5980 nM

Question: What about the GI50 [24] of the same compound?
Answer: 294 nM

Question: And the TGI [24]?
Answer: 1170 nM

Question: What about the GI50 [25] of the same compound?
Answer: 3390 nM

Question: What about the TGI [25] of the same compound?
Answer: > 100000 nM

Question: And the GI50 [26]?
Answer: 30.2 nM

Question: What about the TGI [26] of the same compound?
Answer: 169 nM

Question: And the GI50 [27]?
Answer: 20.1 nM

Question: And the TGI [27]?
Answer: 50 nM

Question: And the GI50 [28]?
Answer: 43.6 nM

Question: What about the TGI [28] of the same compound?
Answer: 347 nM

Question: What about the GI50 [29] of the same compound?
Answer: 3170 nM

Question: What about the TGI [29] of the same compound?
Answer: > 100000 nM

Question: What about the GI50 [30] of the same compound?
Answer: 1260 nM

Question: What about the TGI [30] of the same compound?
Answer: > 100000 nM

Question: What about the GI50 [31] of the same compound?
Answer: 1060 nM

Question: And the TGI [31]?
Answer: 3330 nM

Question: And the GI50 [32]?
Answer: 154 nM

Question: And the TGI [32]?
Answer: 292 nM

Question: What about the GI50 [33] of the same compound?
Answer: 1640 nM

Question: What about the TGI [33] of the same compound?
Answer: 8380 nM

Question: What about the GI50 [34] of the same compound?
Answer: 3570 nM

Question: And the TGI [34]?
Answer: > 100000 nM

Question: What about the GI50 [35] of the same compound?
Answer: 2940 nM

Question: What about the TGI [35] of the same compound?
Answer: > 100000 nM

Question: What about the GI50 [36] of the same compound?
Answer: 2420 nM

Question: And the TGI [36]?
Answer: > 100000 nM

Question: What about the GI50 [37] of the same compound?
Answer: 17.3 nM

Question: And the TGI [37]?
Answer: 119 nM

Question: And the GI50 [38]?
Answer: 85.7 nM

Question: What about the TGI [38] of the same compound?
Answer: 210 nM

Question: And the GI50 [39]?
Answer: 241 nM

Question: And the TGI [39]?
Answer: 592 nM

Question: What about the GI50 [40] of the same compound?
Answer: 4410 nM

Question: And the TGI [40]?
Answer: > 100000 nM
